Source: patent US9504729B2, “Antiangiogenic small molecules and methods of use” (The United States of America, as represented by the …, priority 2009, dated 2016)

Test system: angiogenesis genes in dermal microvascular endothelial cells
Test: Real time RT-PCR of angiogenesis gene expression during endothelial tube formation
Format: cell-based
Settings: 1 μM SM, 24 hours

Structure (SMILES): COc1cc2cc(c1Cl)N(C)C(=O)CC(OC(=O)C(C)C)C1(C)OC1C(C)C1CC(O)(NC(=O)O1)C(OC)/C=C/C=C(\C)C2 (centres unmarked) [compound 292222]
- Log2 fold-change of gene expression: 1839: −0.1
- Log2 fold-change of gene expression: 4247: 0.5
- Log2 fold-change of gene expression: 5569: 1.5
- Log2 fold-change of gene expression: 8131: 0.1
- Log2 fold-change of gene expression: 9569: 0.2
- Log2 fold-change of gene expression: 10988: 1.0
- Log2 fold-change of gene expression: 23001: −0.8
- Log2 fold-change of gene expression: 55332: 2.4
- Log2 fold-change of gene expression: 57722: 0.0
- Log2 fold-change of gene expression: 58488: 1.0
- Log2 fold-change of gene expression: 90780: 0.1
- Log2 fold-change of gene expression: 134265: −1.3
- Log2 fold-change of gene expression: AKT1: 0.7
- Log2 fold-change of gene expression: ANGPT1: 0.9
- Log2 fold-change of gene expression: ANGPT2: −1.3
- Log2 fold-change of gene expression: ANGPTL3: 0.6
- Log2 fold-change of gene expression: ANGPTL4: 1.3
- Log2 fold-change of gene expression: ANPEP: −0.6
- Log2 fold-change of gene expression: ANTXR1: −0.2
- Log2 fold-change of gene expression: APOE: −2.2
- Log2 fold-change of gene expression: ARHGEF1: −0.9
- Log2 fold-change of gene expression: Acvrl1: 0.0
- Log2 fold-change of gene expression: Adcy4: −0.4
- Log2 fold-change of gene expression: BAL1: 0.2
- Log2 fold-change of gene expression: BMP1: 0.4
- Log2 fold-change of gene expression: C1orf54: −0.1
- Log2 fold-change of gene expression: CALD1: 0.6
- Log2 fold-change of gene expression: CCL2: 0.9
- Log2 fold-change of gene expression: CCL11: 0.2
- Log2 fold-change of gene expression: CD248: 1.3
- Log2 fold-change of gene expression: CDH5: −0.1
- Log2 fold-change of gene expression: CENTD3: −0.5
- Log2 fold-change of gene expression: CLIC1: 6.6
- Log2 fold-change of gene expression: COL4A3: 2.0
- Log2 fold-change of gene expression: COL18A1: 1.2
- Log2 fold-change of gene expression: COMT: −0.2
- Log2 fold-change of gene expression: CST4: 0.8
- Log2 fold-change of gene expression: CTTNBP2NL: 0.2
- Log2 fold-change of gene expression: CXCL3: 5.0
- Log2 fold-change of gene expression: CXCL5: 3.4
- Log2 fold-change of gene expression: CXCL6: 0.4
- Log2 fold-change of gene expression: CXCL9: 0.4
- Log2 fold-change of gene expression: CXCL10: 0.8
- Log2 fold-change of gene expression: Calcr1: −1.1
- Log2 fold-change of gene expression: Caskin2: −6.7
- Log2 fold-change of gene expression: Ccbp2: 0.4
- Log2 fold-change of gene expression: Cldn5: −0.1
- Log2 fold-change of gene expression: DGKG: 2.9
- Log2 fold-change of gene expression: DKK3: −1.1
- Log2 fold-change of gene expression: DLL4: −2.2
- Log2 fold-change of gene expression: DUT: −0.4
- Log2 fold-change of gene expression: EFNA1: 0.9
- Log2 fold-change of gene expression: EFNA3: 0.1
- Log2 fold-change of gene expression: EFNB2: −2.2
- Log2 fold-change of gene expression: EGF: 2.8
- Log2 fold-change of gene expression: ENG: −0.9
- Log2 fold-change of gene expression: EPHB4: −0.5
- Log2 fold-change of gene expression: EREG: 5.0
- Log2 fold-change of gene expression: ESAM1: −1.1
- Log2 fold-change of gene expression: EXTL3: 0.8
- Log2 fold-change of gene expression: Egf17: −1.2
- Log2 fold-change of gene expression: Ehd4: −1.4
- Log2 fold-change of gene expression: Entpd1: −5.5
- Log2 fold-change of gene expression: Epas1: −1.7
- Log2 fold-change of gene expression: EphB1: 0.9
- Log2 fold-change of gene expression: Erg: 3.7
- Log2 fold-change of gene expression: FGF1: −1.4
- Log2 fold-change of gene expression: FGF2: −0.6
- Log2 fold-change of gene expression: FGFR3: 0.8
- Log2 fold-change of gene expression: FIGF: 0.1
- Log2 fold-change of gene expression: FLT1: −0.2
- Log2 fold-change of gene expression: Fgd5: −0.8
- Log2 fold-change of gene expression: GPCR124: −1.9
- Log2 fold-change of gene expression: GRRP1: 0.1
- Log2 fold-change of gene expression: Grp116: −4.4
- Log2 fold-change of gene expression: HAND2: 1.0
- Log2 fold-change of gene expression: HGF: 1.3
- Log2 fold-change of gene expression: HIF1A: −0.7
- Log2 fold-change of gene expression: HPSE: 1.6
- Log2 fold-change of gene expression: Hspa12b: −2.2
- Log2 fold-change of gene expression: ID1: 0.0
- Log2 fold-change of gene expression: ID3: −0.2
- Log2 fold-change of gene expression: IFNA1: 0.8
- Log2 fold-change of gene expression: IFNB1: 1.1
- Log2 fold-change of gene expression: IFNG: 3.1
- Log2 fold-change of gene expression: IGF1: 6.0
- Log2 fold-change of gene expression: IL1B: 4.3
- Log2 fold-change of gene expression: IL6: 3.0
- Log2 fold-change of gene expression: IL8: 13.9
- Log2 fold-change of gene expression: ITGAV: 1.2
- Log2 fold-change of gene expression: ITGB3: 2.5
- Log2 fold-change of gene expression: Icam1: 0.5
- Log2 fold-change of gene expression: Icam2: 0.1
- Log2 fold-change of gene expression: JAG1: 1.6
- Log2 fold-change of gene expression: KDR: −1.2
- Log2 fold-change of gene expression: Kifc1: 0.5
- Log2 fold-change of gene expression: LAMAS5: −0.4
- Log2 fold-change of gene expression: LECT1: 1.4
- Log2 fold-change of gene expression: LEP: −0.6
- Log2 fold-change of gene expression: Lasts2: 0.1
- Log2 fold-change of gene expression: Lrrk1: −0.1
- Log2 fold-change of gene expression: MDK: 0.8
- Log2 fold-change of gene expression: MMP2: 2.8
- Log2 fold-change of gene expression: MMP9: 3.3
- Log2 fold-change of gene expression: MMP11: 0.1
- Log2 fold-change of gene expression: MRC2: 0.6
- Log2 fold-change of gene expression: Mmm2: −1.0
- Log2 fold-change of gene expression: Myo1b: −1.5
- Log2 fold-change of gene expression: NID1: −2.5
- Log2 fold-change of gene expression: NM023516: 0.4
- Log2 fold-change of gene expression: NRP1: 0.8
- Log2 fold-change of gene expression: NRP2: 1.0
- Log2 fold-change of gene expression: Notch4: −0.4
- Log2 fold-change of gene expression: Npr3: 0.9
- Log2 fold-change of gene expression: PALD: 1.8
- Log2 fold-change of gene expression: PDCD2: 0.2
- Log2 fold-change of gene expression: PDGFA: 1.6
- Log2 fold-change of gene expression: PECAM1: −0.7
- Log2 fold-change of gene expression: PGF: 0.6
- Log2 fold-change of gene expression: PLAU: 2.7
- Log2 fold-change of gene expression: PLG: −0.7
- Log2 fold-change of gene expression: PNMT: 0.1
- Log2 fold-change of gene expression: PROK2: 1.9
- Log2 fold-change of gene expression: PTGS1: 2.0
- Log2 fold-change of gene expression: PTPRCAP: 0.1
- Log2 fold-change of gene expression: Pltp: 0.4
- Log2 fold-change of gene expression: Ptprb: 0.3
- Log2 fold-change of gene expression: Ptprm: −0.1
- Log2 fold-change of gene expression: RAMP2: −0.6
- Log2 fold-change of gene expression: RASD2: 0.3
- Log2 fold-change of gene expression: Rasip1: −0.3
- Log2 fold-change of gene expression: S1PR1: −0.3
- Log2 fold-change of gene expression: SERPINF1: 2.3
- Log2 fold-change of gene expression: SPHK1: 2.0
- Log2 fold-change of gene expression: STAB1: 0.2
- Log2 fold-change of gene expression: Sdc4: 0.7
- Log2 fold-change of gene expression: Sdpr: −4.9
- Log2 fold-change of gene expression: Slc43a3: 1.0
- Log2 fold-change of gene expression: Slco2a1: −5.3
- Log2 fold-change of gene expression: TEK: 2.0
- Log2 fold-change of gene expression: TGFA: −3.4
- Log2 fold-change of gene expression: TGFB1: 1.1
- Log2 fold-change of gene expression: TGFB2: 1.9
- Log2 fold-change of gene expression: TGFBR1: 1.8
- Log2 fold-change of gene expression: THBS1: 1.1
- Log2 fold-change of gene expression: THBS2: 1.9
- Log2 fold-change of gene expression: THY1: −8.0
- Log2 fold-change of gene expression: TIMP1: 1.6
- Log2 fold-change of gene expression: TIMP2: 1.1
- Log2 fold-change of gene expression: TIMP3: −0.4
- Log2 fold-change of gene expression: TNF: 1.0
- Log2 fold-change of gene expression: TNS1: −0.3
- Log2 fold-change of gene expression: TNS3: 0.5
- Log2 fold-change of gene expression: TRA2B: −0.6
- Log2 fold-change of gene expression: TYMP: −0.1
- Log2 fold-change of gene expression: VEGFA: 3.2
- Log2 fold-change of gene expression: VEGFC: 2.7
- Log2 fold-change of gene expression: VGLL4: −0.8
- Log2 fold-change of gene expression: Vwf: −3.3
- Log2 fold-change of gene expression: copa: 0.2
- Log2 fold-change of gene expression: itbp4: 0.1
- Log2 fold-change of gene expression: ralb: −0.4
- Log2 fold-change of gene expression: stard9: 0.8
- Log2 fold-change of gene expression: B2M (1st listing (r49)): −0.4
- Log2 fold-change of gene expression: HPRT1 (1st listing (r50)): 0.3
- Log2 fold-change of gene expression: RPL13A (1st listing (r51)): 0.7
- Log2 fold-change of gene expression: GADPH (1st listing (r52)): −0.1
- Log2 fold-change of gene expression: ACTB (1st listing (r53)): −0.8
- Log2 fold-change of gene expression: PLXDC1 (1st listing (r74)): −0.1
- Log2 fold-change of gene expression: TNFAIP2 (1st listing (r91)): 0.6
- Log2 fold-change of gene expression: Robo4 (1st listing (r95)): 1.1
- Log2 fold-change of gene expression: 151516 (1st listing (r134)): 0.7
- Log2 fold-change of gene expression: TNFAIP2 (2nd listing (r92)): 0.2
- Log2 fold-change of gene expression: B2M (2nd listing (r97)): 1.3
- Log2 fold-change of gene expression: HPRT1 (2nd listing (r98)): 1.4
- Log2 fold-change of gene expression: RPL13A (2nd listing (r99)): 1.7
- Log2 fold-change of gene expression: GADPH (2nd listing (r100)): 1.4
- Log2 fold-change of gene expression: ACTB (2nd listing (r101)): −6.3
- Log2 fold-change of gene expression: PLXDC1 (2nd listing (r104)): 0.3
- Log2 fold-change of gene expression: 151516 (2nd listing (r139)): 0.7
- Log2 fold-change of gene expression: Robo4 (2nd listing (r188)): 0.0
- Log2 fold-change of gene expression: B2M (3rd listing (r145)): 0.0
- Log2 fold-change of gene expression: HPRT1 (3rd listing (r146)): 0.2
- Log2 fold-change of gene expression: RPL13A (3rd listing (r147)): 0.3
- Log2 fold-change of gene expression: GADPH (3rd listing (r148)): −0.1
- Log2 fold-change of gene expression: ACTB (3rd listing (r149)): −0.9
- Log2 fold-change of gene expression: B2M (4th listing (r193)): 0.6
- Log2 fold-change of gene expression: HPRT1 (4th listing (r194)): 0.4
- Log2 fold-change of gene expression: RPL13A (4th listing (r195)): 1.2
- Log2 fold-change of gene expression: GADPH (4th listing (r196)): −0.2
- Log2 fold-change of gene expression: ACTB (4th listing (r197)): −0.6
